Measurements: US20260265267A1, “NOVEL COMPOUNDS WITH MTORC2-INHIBITORY ACTIVITY AND USES THEREOF” (Aliad Biopharma, priority 2023, published 2026)

Tests used:
mTORC2 [1] = molecular target: T1, mTORC2 (Homo sapiens, UniProt P42345); test: mTORC2 inhibitory activity in HeLa cells (Akt Ser473 phosphorylation, Western blot); type: cell-based; conditions: for remaining activity at 40 µM: read-out: pSer473-AKT/AKT (% control); for inhibition at 40 µM: HeLa, 9 h, read-out: reduction in Akt Ser473 phosphorylation compared to the control group
T1 construct: the following experiments were conducted in HeLa cells; endogenous in cells; host or cells: HeLa
Description: (§1) Specifically, HeLa cells were cultured in a 5% CO2 incubator at 37° C. in DMEM (Dulbecco's Modified Eagles Media) medium supplemented with 10% FBS, penicillin (100 unit/ml), and streptomycin (100 μg/ml). Cultivation was started by seeding 4×10^5 cells in a 100 mm culture dish, and subculture was carried out every 3 days.
(§2) Human cell line HeLa cells were seeded in a 60 mm culture dish at a density of 2×10^5 cells/plate, and cultured for 24 hours. Then, HeLa cells were treated with 70 types of compounds at a concentration of 40 μM each for 9 hours. HeLa cells were washed twice with cold 1×PBS, and then lysed with 100 μl of RIPA buffer (50 mM Tris-HCl (pH7.4), 0.25% sodium deoxycholate, 50 mM NaF, 1% NP-40, 150 mM NaCl, 1 mM β-glycerophosphate, 1 mM PMSF, 1 mM NaVO4, 1 μg/ml leupeptin, 1 μg/ml pepstatin A, 10 nM calyculin A, 10 μg/ml aprotinin, 1 mM EDTA) to hemolyze the cell membrane. Then, the lysates were centrifuged at 12,000 rpm at 4° C. for 10 minutes to collect the supernatant, which is cell lysate. Protein concentration in the cell lysate was determined using the BCA protein assay kit (Thermo Fisher Scientific), and equal amounts of protein were separated by SDS-PAGE.
(§3) Western blot analysis was performed by the following method. […] After washing the membrane three times for 5 minutes each with TBS-T buffer, it was incubated with primary antibodies diluted in TBS-T buffer containing 5% skim milk or 5% BSA overnight at 4° C. Subsequently, the membrane was washed three times for 5 minutes each with TBS-T buffer, and then incubated with secondary antibodies diluted in TBS-T buffer containing 5% skim milk at room temperature for 30 minutes. The membrane was washed five times for 5 minutes each with TBS-T buffer containing 5% skim milk, and then the protein bands bound by the secondary antibody were detected using a chemiluminescence method. The primary antibodies used were Akt (cell signaling, #4691), pAkt(S473) (Cell signaling, #4060), p70S6K (Cell signaling, #S6198), pp70S6K(T389) (cell signaling, #9205S), LC3-II (MBL, #PM036), and the secondary antibodies used were HRP conjugated anti-rabbit (Jackson immunoresearch laboratory, #711-035-152) and HRP conjugated anti-mouse IgG (Jackson immunoresearch laboratory, #515-035-072).
As an mTORC2 activity indicator in HeLa cells, the level of Akt Ser473 phosphorylation was selected as a marker, and the phosphor-Akt (Ser473) signal obtained from Western blot analysis was normalized to the pan-Akt signal, and the data were expressed as a percentage relative to the control group treated with DMSO only, which is a vehicle.

mTORC1 [2] = molecular target: T2, mTORC1 (Homo sapiens, UniProt P42345); test: mTORC1 inhibitory activity in HeLa cells (p70S6K Thr389 phosphorylation, Western blot); type: cell-based; conditions: for remaining activity at 40 µM: 9 hours, read-out: pThr389-S6K/S6K (% control)
T2 construct: the following experiments were conducted in HeLa cells; endogenous in cells; host or cells: HeLa
Description: as §1, §2, §3
As an mTORC1 activity indicator in HeLa cells, the level of p70S6K Thr389 phosphorylation was selected as a marker, and the level of phosphor-p70S6K (Thr389) signal measured by Western blot analysis was normalized to a level of pan-p70S6K signal, and then expressed as a percentage of the control group treated with only DMSO, which is a vehicle.

LC3-II [3] = test: LC3-II formation as indicator of autophagy in HeLa cells (Western blot); type: cell-based, human; conditions: 9 hours; for activity at 40 µM: Homo sapiens, read-out: LC3-II (% control)
Description: as §1, §2, §3
LC3-II formation was selected as an indicator of autophagy in HeLa cells, and the LC3-II signal obtained from Western blot analysis was normalized to the pan-Akt signal and the data were expressed as a percentage relative to the control group treated with DMSO only, which is a vehicle.

mTORC2 [4] = test: mTORC2 inhibitory activity in primary cultured cerebral neurons (Akt Ser473 phosphorylation); type: cell-based, SD mice
Description: Specifically, primary neural cells were cultured from the cerebral cortex of E16 embryos of SD mice with a gestational age 16-day (Orient Bio). The extracted brain was separated into the left and right hemispheres, the meninges were removed, and the brains were treated with trypsin in Ca^2+/Mg^2+-free HBSS solution.
The time-dependent changes in Akt Ser473 phosphorylation, Akt Thr308 phosphorylation, and LC3-II levels were measured by Western blot analysis.

mTORC1 [5] = test: mTORC1 inhibitory activity in primary cultured cerebral neurons (S6K Thr389 phosphorylation); type: cell-based, SD mice
LC3-II [6] = test: LC3-II levels in primary cultured cerebral neurons; type: cell-based, SD mice
Description: Specifically, primary neural cells were cultured from the cerebral cortex of E16 embryos of SD […] with a gestational age 16-day (Orient Bio). The extracted brain was separated into the left and right hemispheres, the meninges were removed, and the brains were treated with trypsin in Ca^2+/Mg^2+-free HBSS solution. […] The cells were seeded at a density of 19,000 cells/cm^2 onto 35 mm culture dishes coated with 50 μg/ml poly-D-Lysine (Sigma, P0899) and 1 μg/ml laminin (Invitrogen, 23017-015), and then maintained in neurobasal complete media supplemented with B27 (Gibco, 17504-044) in a 5% CO2 incubator.
Therefore, the evaluation of mTORC2 inhibitory activity in primary cultured cerebral cells was conducted using the same method as in Experimental Example 1, except that each compound was treated at concentrations of 500 nM or 100 nM for 24 hours. The time-dependent changes in Akt Ser473 phosphorylation, Akt Thr308 phosphorylation, and LC3-II levels were measured by Western blot analysis.

[7] = molecular target: T3, mTOR(CD) protein and mLST8 protein (Homo sapiens, UniProt P42345+Q9BVC4); test: mTOR(CD)-mLST8 binding assay (co-precipitation, Western blot); conditions: 0.04 to 40 μM
T3 construct: mTOR C-terminal domain (mTOR(CD), a.a. 2179-2549); made in house; host or cells: E. coli (mTOR(CD)); insect Sf9 cells (mLST8, used as a crude extract)
Description: mLST8 binds to the mTOR C-terminal domain (mTOR(CD), a.a. 2179-2549). After binding to mTOR, mLST8 interacts with mSin1 and Rictor to complete the formation of the mTORC2 complex, serving as a scaffold. In order to evaluate the inhibitory activity of the compounds synthesized in Examples 1 to 70 on the binding between mLST8 protein and mTOR(CD) protein, the following mTOR(CD)-mLST8 binding assay was performed. Four types of compounds: HN2210, HN2213, HN2221 and HN2313 were used as the experimental target compounds.
Specifically, mTOR(CD) protein was overexpressed in E. coli, labeled with biotin, and then partially purified. mLST8 protein was overexpressed in insect Sf9 cells to obtain mLST8 extract. mTOR(CD)-biotin and mLST8 extract were incubated at 4° C. to induce binding between mTOR(CD)-biotin and mLST8 proteins, and then the mTOR(CD)-biotin and mLST8 complex were co-precipitated using avidin-agarose beads. The relative amounts of precipitated mTOR(CD)-biotin and mLST8 proteins were measured by Western blot analysis, as shown in FIG. 4. Four types of compounds were added during the incubation process of the mTOR(CD)-biotin and mLST8 extract.

Structure (SMILES)	remaining activity at 40 µM (mTORC2 [1]; 9 hours)	inhibition at 40 µM (mTORC2 [1])	remaining activity at 40 µM (mTORC1 [2])	inhibition at 40 µM (mTORC1 [2]; HeLa, 9 h, read-out: reduction in p70S6K Thr389 phosphorylation compared to the control group)	increase in LC3-II (LC3-II [3]; 40 μM)	activity at 40 µM (LC3-II [3])	selectivity for mTORC2 over mTORC1 (mTORC2 [4])	pSer473-AKT/AKT (% control) (mTORC2 [4]; 100 nM, 24 hours)	effect on Akt Ser473 phosphorylation (mTORC2 [4]; 500 nM or 100 nM, 24 hours)	decrease in AKT Ser473 phosphorylation at 24 hours (mTORC2 [4]; 500 nM or 100 nM, at 24 hours)	AKT Ser473 phosphorylation from 1 to 12 hours (mTORC2 [4]; from 1 to 12 hours)	pThr389-S6K/S6K (% control) (mTORC1 [5]; 100 nM, 24 hours)	effect on S6K Thr389 phosphorylation (mTORC1 [5]; 500 nM or 100 nM, time course to 24 hours (HN2304: from 6 to 24 hours))	LC3-II (% control) (LC3-II [6]; 100 nM, 24 hours)	effect on LC3-II (LC3-II [6]; 500 nM or 100 nM, time course to 24 hours)	selective inhibition of mTORC2 (mTORC2 [1]; 40 μM, 9 hours, versus mTORC1)	inhibition of the binding between mTOR(CD) and mLST8 proteins [7]
COc1ccccc1CNc1cc2c(cc1F)C(=O)c1cc3c(cc1OC2)OCO3 [HN2323, 9-fluoro-8-((2-methoxybenzyl)amino)-[1,3]dioxolo[4′,5′:4,5]benzo[1,2-b]benzo[e]oxepin-11(6H)-one]	72%	> 20%	60%	40%	80%	180%	selective mTORC2 inhibitors	48 % control	reduce Akt Ser473 phosphorylation	52%	increased AKT Ser473 phosphorylation significantly	128 % control	no effect	135 % control	no effect	–	–
O=C1c2cc(F)c(NC3CCCCC3)cc2COc2cc3c(cc21)OCO3 [HN2221, 8-(cyclohexylamino)-9-fluoro[2]benzoxepino[3,4-f]-1,3-benzodioxol-11(6H)-one]	77%	> 20%	93%	–	–	119%	–	–	–	–	–	–	–	–	–	selectively inhibit mTORC2	did not significantly inhibit
